Results from PMC10967572, “Induction of Oxidative Stress and Ferroptosis in Triple-Negative Breast Cancer Cells by Niclosamide via Blockade of the Function and Expression of SLC38A5 and SLC7A11” (Antioxidants, 2024).

Legend:
MB231 and TXBR100 cells [1] = assay: Cellular iron assay (Ferro-orange); type: cell-based, human; conditions: niclosamide 5 μM, 30 min
Method: Lipid radical (ferroptosis) assay and iron assay were performed as follows. Cells were cultured on a 25 mm glass coverslip until they reached 60–70% confluency (~48 h). At the time of the experiment, cells were washed with NaCl buffer, pH 7.5 and then incubated with 1 µM of LipiRadical Green (a lipid radical detection reagent, FDV-0042, Funakoshi, Tokyo, Japan) or Ferro-orange (an iron detection probe, F374, Dojindo, Rockville, MD, USA) in NaCl buffer, pH 7.5 for 20 min and then washed with NaCl buffer, pH 7.5. To analyze the effects of modifiers of iron levels and lipid peroxidation, the cells were co-treated with the modifiers and the respective fluorescent probe for 20 min and then washed. The glass coverslip containing the cells was then probed under an inverted microscope. The fluorescence imaging was captured using a Nikon T1-E microscope with A1 confocal super-resolution module (Nikon, Dallas, TX, USA), with a 60× objective, at 488 nm. The images represent a maximum projection intensity derived from a Z-stack. The fluorescence quantification was performed by measuring the corrected total cell fluorescence (CTCF) using Image J (version: 2.14.0/1.54f) and the following formula; CTCF = (integrated density) − (area of cell of interest) × (mean fluorescence of background).

MB231 xenograft tumors = assay: qRT-PCR and Western blot of xenograft tumor tissue; type: in vivo, mouse; conditions: niclosamide 4 mg/kg daily i.p.
Method: Total RNA was extracted from cells using TRIzol Reagent (ThermoFisher Scientific, Waltham, MA, USA) and the RNA was reverse-transcribed using a high-capacity cDNA reverse transcription kit (ThermoFisher Scientific, Waltham, MA, USA) according to the manufacturer’s protocol. Quantitative RT-PCR was performed with Takara Taq Hot Start Version (TaKaRa Biotechnology, Shiga, Japan) or Power SYBR Green PCR master mix (Bio-Rad, Hercules, CA, USA). Primer sequences are shown in Supplemental Table S1. The relative mRNA expression was determined by the 2^−∆∆Ct method. Additionally, 18S was used as a housekeeping gene for normalization.
Cells and tumor tissues were lysed in Pierce™ RIPA buffer (ThermoFisher Scientific, Waltham, MA, USA) supplemented with Halt™ Protease and Phosphatase Inhibitor Cocktail (ThermoFisher Scientific, Waltham, MA, USA). Homogenates were centrifuged, and supernatants were used for protein measurement via Pierce™ BCA Protein Assay Kit (ThermoFisher Scientific, Waltham, MA, USA). […] Western blot samples were prepared in Laemmli sample buffer (Bio-Rad Laboratories, Hercules, CA, USA). They were loaded onto a SDS–PAGE gel and transferred onto a PVDF membrane (Bio-Rad Laboratories, Hercules, CA, USA). The membrane was blocked and antibodies diluted in 5% nonfat dry milk (Bio-Rad Laboratories, Hercules, CA, USA) or in 5% bovine serum albumin (Irvine Scientific, Santa Ana, CA, USA) were used. Protein bands were visualized using Pierce™ ECL Western Blotting Substrate (ThermoFisher Scientific, Waltham, MA, USA) and developed on the autoradiography film (Santa Cruz, Dallas, TX, USA). Primary antibodies were purchased either from Cell Signaling (Danvers, MA, USA) [anti-GPX4 (#52455), anti-FTH (#4393), anti-HSP60 (#12165), anti-phospho-p70S6K (#9205), anti-p70S6K (#2708)] or from Abcam (Waltham, MA, USA) [Nrf2 (#ab62352)]. Secondary antibody Horseradish peroxidase-conjugated goat anti-rabbit IgG (#1706515) was purchased from Bio-Rad Laboratories (Hercules, CA, USA). For quantification of protein levels by the densitometric analysis, the experiment was carried out in triplicate and the data were collected from the resultant three Western blots.
Female athymic nude mice (4-week-old) were purchased from Jackson Laboratories and housed under standard conditions. MDA-MB231 cells were injected into lower mammary fat pad (5 × 10^6 cells). All cells were suspended in serum-free media and Matrigel (1:1 ratio), with 100 µL of suspension being injected into each mouse. Mice were treated by daily intraperitoneal injection of niclosamide (4 mg/kg/day) and vehicle (dimethylsulfoxide) control. The treatment began when the tumor size was 100–150 mm^3. Tumor size was measured biweekly with a caliper, with tumor volume calculated using the formula (width^2 × length)/2. Tumors were allowed to grow for 7 weeks; mice were then euthanized via isoflurane […] and tumors harvested. The animal study protocol was approved by the Texas Tech University Health Sciences Center Institutional Animal Care and Use Committee (IACUC protocol number 18005) and the experiments were conducted in the same institution. RNA and protein were prepared from the tumor tissue for qRT-PCR and Western blotting.

[2] = tested on: TNBC cells (MB231 and TXBR100); assay: Colony formation (clonogenic) assay; type: cell-based, human; conditions: niclosamide 0.5 μM, 10 days
Description: We performed the colony formation (clonogenic) assay with different doses of niclosamide on two different TNBC cell lines. Initial seeding was done with 500 cells/well and culture was continued for 10 days with culture medium replaced with fresh medium with freshly prepared niclosamide every other day. At the end of the 10-day time period, the medium was removed and the colonies were fixed with ice-cold methanol/acetone and then stained with Giemsa stain.

MB231 and TXBR100 cells [3] = assay: Reactive oxygen species assay (DCFH-DA); type: cell-based, human; conditions: niclosamide 2.5 and/or 5 μM, 24 h
Method: The probe of DCFH-DA was used to measure ROS. Briefly, cells were grown in a 96-well plate and then incubated with DCFH-DA (10 µM) at 37 °C for 30 min in dark. At the end of the incubation, cells were treated with different concentrations of niclosamide. Fluorescence intensity was monitored with a Microplate Reader (Glomax multi-detection system, Promega, Madison, WI, USA) at the excitation and emission wavelengths of 485 and 528 nm, respectively. Cellular fluorescence levels were expressed as % of control group (i.e., no treatment with niclosamide).

SMILES: O=C(Nc1ccc([N+](=O)[O-])cc1Cl)c1cc(Cl)ccc1O [niclosamide]
- cellular iron levels (MB231 and TXBR100 cells [1]): increased
- Nrf2 protein levels in tumors (MB231 xenograft tumors; Western blot): markedly decreased
- ferritin heavy chain protein levels in tumors (MB231 xenograft tumors; Western blot): decreased
- Nrf2 mRNA level in tumors (MB231 xenograft tumors; qRT-PCR): markedly decreased
- SLC7A11 mRNA level in tumors (MB231 xenograft tumors; qRT-PCR): markedly decreased
- SLC38A5 mRNA level in tumors (MB231 xenograft tumors; qRT-PCR): markedly decreased
- decrease in colony formation [2]: > 50%
- ROS levels (MB231 and TXBR100 cells [3]): increase
